Results reported in US20040029276A1, “Fish attractants” (priority 2000, published 2004).

How the values were obtained:
[1] = tested on: carp; assay: Behavioural response of carp in a Perspex flow-through experimental flume; format: in vivo
Protocol: The behaviour of carp in response to 17,20β-dihydroxy-4-pregnen-3-one was studied in a Perspex flow-through experimental flume. Fish were placed in the flume individually and allowed to acclimatise for a minimum of 1 hour before each experiment. The first set of experiments determined the behavioural response of male (n=5) and female (n=5) carp to serial dilutions of pure and synthetic form of 17,20β-dihydroxy-4-pregnen-3-one. Dilutions ranged from one part in 10^5 to one part in 10^11. The second set of experiments tested the behavioural response of male and female carp (n=6) to the same serial dilutions of synthetic 17,20β-dihydroxy-4-pregnen-3-one as used in Experiment 1, but with the addition of 5 dyed-gelatine pellets on the bottom of the flume. […] This feeding behaviour was characterised by the following: […]

[2] = tested on: male and female carp; assay: Electrophysiological and behavioural studies in an experimental behaviour chamber; format: in vivo
Source text: A particular composition which includes either a pure or crude synthetic form of 17,20β-dihydroxy-4-pregnen-3-one with an ethanol carrier has been tested by the inventors in laboratory experiments.

[3] = tested on: olfactory system of the male fish; conditions: olfactory detection of the sex pheromone, Sorenson et al. 1987; cited from earlier work

SMILES: C[C@@H](O)[C@@]1(O)CC[C@H]2[C@@H]3CCC4=CC(=O)CC[C@]4(C)[C@H]3CC[C@@]21C [17,20β-dihydroxy-4-pregnen-3-one]
- feeding behaviour in carp ([1]; added to the behaviour chamber at concentrations ranging from 10^−5 to one part in 10^−10): resulted in feeding behaviour in carp
- attraction of fish ([1]; sexually immature carp): attracted immature carp
- feeding behaviour in immature carp ([1]; sexually immature carp): resulted in feeding behaviour in these individuals
- feeding behaviour on detection of the hormone ([2]; experimental behaviour chamber): results in feeding behaviour
- detection of the hormone by the fish ([2]; pure or crude synthetic form with an ethanol carrier): detected by both male and female carp
- threshold concentration for the male fish [3]: about 10^−13 M
